Results taken from ChEMBL document CHEMBL1125938, “A novel targeted delivery system utilizing a cephalosporin-oncolytic prodrug activated by an antibody -lactamase conjugate for the treatment of cancer” (Bioorg Med Chem Lett, 1991).
≈ marks a conversion by molar mass, not a printed value.

Assays:
LS174T [1] = experiment: Compound was evaluated for in vitro cytotoxicity after 6 hour, against CEA-bearing LS174T human colon carcinoma cells, in absence of beta-L-CEM 231 conjugate; format: functional, cell-based
LS174T [2] = experiment: Compound was evaluated for in vitro cytotoxicity after 48 hour, against CEA-bearing LS174T human colon carcinoma cells, in absence of beta-L-CEM 231 conjugate; format: functional, cell-based

Compound | IC50 (LS174T [1]; Homo sapiens, LS174T, 6 h, read-out: IC50) | IC50 (LS174T [2]) | IC50 (LS174T [1]; ls174t)
CC[C@]1(O)C[C@@H]2CN(CCc3c([nH]c4ccccc34)[C@@](C(=O)OC)(c3cc4c(cc3OC)N(C)C3[C@]45CCN4CC=C[C@@](CC)([C@@H](O)[C@]3(O)C(=O)NCCS)[C@H]45)C2)C1 (stereo not given in full) | 0.26 µg/mL (≈ 0.319 µM) | < 0.001 µg/mL | 
CC[C@]1(O)C[C@@H]2CN(CCc3c([nH]c4ccccc34)[C@@](C(=O)OC)(c3cc4c(cc3OC)N(C)C3[C@]45CCN4CC=C[C@@](CC)([C@@H](O)[C@]3(O)C(=O)NCCSCC3=C(C(=O)O)N6C(=O)[C@@H](NC(=O)Cc7cccs7)[C@H]6SC3)[C@H]45)C2)C1 (single isomer, unassigned; (+)) |  |  | 0.26 µg/mL (≈ 0.226 µM)
CC[C@]1(O)C[C@@H]2CN(CCc3c([nH]c4ccccc34)[C@@](C(=O)OC)(c3cc4c(cc3OC)N(C)C3[C@]45CCN4CC=C[C@@](CC)([C@@H](O)[C@]3(O)C(=O)NCCSCC3=C(C(=O)O)N6C(=O)[C@@H](NC(=O)Cc7cccs7)[C@H]6SC3)[C@H]45)C2)C1 (single isomer, unassigned; (-)) |  | < 0.001 µg/mL | 2.15 µg/mL (≈ 1.87 µM)
